The numbers were not newly measured in patent US20220202803A1, “COMBINATION THERAPIES INCLUDING INHIBITORS OF DIHYDROOROTATE DEHYDROGENASE” (Clear Creek Bio, Inc., priority 2019, published 2022), which cites them from elsewhere.

Data set [1] concerns mouse model of AML. Particulars: daily administration of high doses.
The subject of data set [2] is solid tumor malignancies. Particulars: administered over a 5-day period followed by a 3-week gap or once per week for three weeks followed by a 1-week gap.

As for `Cc1c(-c2ccc(-c3ccccc3F)cc2)nc2ccc(F)cc2c1C(=O)O` [brequinar, 6-fluoro-2-(2′-fluoro-1,1′ biphenyl-4-yl)-3-methyl-4-quinoline carboxylic acid], the adverse effects result in data set [1] is “weight loss, anemia, and thrombocytopenia”. The “efficacy in solid tumor malignancies” value in data set [2] is given as “ineffective”.
